Assay results reported in patent US20110136766A1, “AURORA KINASE INHIBITORS” (Vitae Pharmaceuticals, Inc., priority 2008, published 2011).
Read-outs that look alike come from different tables or passages of the source.

Key:
HL-60 = assay: CellTiter-Glo cell viability assay, HL-60; assay type: cell-based; settings: Homo sapiens, read-out: HL-60 IC50
Text: (§1) The CellTiter-Glo® Luminescent Cell Viability Assay is a homogeneous method of determining the number of viable cells in culture based on quantitation of the ATP present, which signals the presence of metabolically active cells. The homogeneous assay procedure involves addition of a single reagent directly to cells cultured in serum-supplemented medium. The homogeneous format results in cell lysis and generation of a luminescent signal proportional to the amount of ATP present. The CellTiter-Glo® Assay relies on the properties of a proprietary thermostable luciferase (Ultra-Glo. Recombinant Luciferase), which generates a stable glow-type Luminescent signal. The half-life of the luminescent signal resulting from this reaction is greater than five hours. This extended half-life eliminates the need for reagent injectors and provides flexibility for continuous or batch-mode processing of multiple plates. The unique homogeneous format reduces pipetting errors that may be introduced during the multiple steps required by other ATP-measurement methods.
(§2) 96 Well cell culture plates were seeded with 10^3 mammalian cells (Colo205, HL-60, SW620, HCT116, MCF-7 and MV-411) in 100 μl culture medium. The cells were incubated overnight prior to initiating the assay. Control wells were prepared on a plate containing medium only to obtain a value for background luminescence.
(§3) Compounds to be tested were added to experimental wells and incubated for 72 hrs (Colo205, HL-60, MV-411), 168 hrs (HCT116, SW620) or 240 hrs (MCF-7). Wells were also set up to as vehicle controls with the addition of 0.1% DMSO. At the end of the incubation period, the plates were equilibrated to room temperature for approximately 30 minutes.
(§4) Lyophilized CellTiter-Glo® Substrate and the CellTiter-Glo® Buffer were warmed to room temperature. The CellTiter-Glo® Buffer was mixed with the CellTiter-Glo® Substrate to reconstitute the lyophilized enzyme/substrate mixture. This forms the CellTiter-Glo® Reagent. The contents were mixed by gently vortexing, swirling or by inverting the contents to obtain a homogeneous solution. 100 μl of CellTiter-Glo® Reagent was added to the cell culture medium present in each well. The contents were mixed for 2 minutes on an orbital shaker to induce cell lysis. The plates were allowed to incubate at room temperature for 10 minutes to stabilize luminescent signal. The contents of the 96 well cell culture plate were then transferred to a white 96 well Optiplate (Perkin Elmer). The luminescence was recorded on Wallac 1420 VICTOR^2 V Multilabel Platereader (An integration time of 0.25-1 second per well).
(§5) 10 mM DMSO stock Compounds were serially diluted threefold in DMSO. Subsequent dilutions made into cell culture media prior to addition to cells to maintain the DMSO concentration at or below 0.1% to avoid cell toxicity.
(§6) The IC50s in Table 2 are the concentration at which 50% growth inhibition relative to control occurs.

Colo205 = assay: CellTiter-Glo cell viability assay, Colo205; assay type: cell-based; settings: Homo sapiens, read-out: Colo205 IC50
Text: as §1, §2, §3, §4, §5, §6

HCT116 = assay: CellTiter-Glo cell viability assay, HCT116; assay type: cell-based; settings: Homo sapiens, read-out: HCT116 IC50
Text: as §1, §2, §3, §4, §5, §6

MCF-7 = assay: CellTiter-Glo cell viability assay, MCF-7; assay type: cell-based; settings: Homo sapiens, read-out: MCF-7 IC50
Text: as §1, §2, §3, §4, §5, §6

MV-411 = assay: CellTiter-Glo cell viability assay, MV-411; assay type: cell-based; settings: Homo sapiens, read-out: MV-411 IC50
Text: as §1, §2, §3, §4, §5, §6

SW620 = assay: CellTiter-Glo cell viability assay, SW620; assay type: cell-based; settings: Homo sapiens, read-out: SW620 IC50
Text: as §1, §2, §3, §4, §5, §6

[1] = biological target: T1, full-length human Aurora A (Homo sapiens, UniProt O14965); assay: Aurora A phosphocellulose filter binding kinase activity assay; assay type: biochemical; settings: 11 nM Aurora A, 10 μM ATP, 50 μM Kemptide, 45 min; read-out: Aur-A IC50
T1 construct: The full-length human Aurora A carrying His6 tag at the N-terminus; His6 (N); purchased Invitrogen, Carlsbad, Calif
T1 sequence (O14965 1-403): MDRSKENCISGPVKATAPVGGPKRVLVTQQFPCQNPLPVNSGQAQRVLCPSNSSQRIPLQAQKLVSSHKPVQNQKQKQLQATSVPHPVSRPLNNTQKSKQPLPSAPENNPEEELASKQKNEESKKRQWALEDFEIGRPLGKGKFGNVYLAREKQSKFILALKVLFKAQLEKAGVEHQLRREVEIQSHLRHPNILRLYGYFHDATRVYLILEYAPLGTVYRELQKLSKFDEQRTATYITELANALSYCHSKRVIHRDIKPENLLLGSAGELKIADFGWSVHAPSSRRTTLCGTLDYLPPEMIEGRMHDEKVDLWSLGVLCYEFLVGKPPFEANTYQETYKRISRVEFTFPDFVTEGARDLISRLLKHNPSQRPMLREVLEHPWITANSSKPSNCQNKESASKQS
Description: (§7) Kinase activity of Aurora kinases was measured by phosphocellulose filter binding assay. The full-length human Aurora A carrying His6 tag at the N-terminus (Invitrogen, Carlsbad, Calif.) and the full-length human Aurora B (N-terminal GST fusion) co-expressed and co-purified with the His6-INCENP INBOX, aminoacids 803-918 (Carna BioSciences, Japan) were used as the enzyme in the assays. Tested compounds were diluted in DMSO and pre-incubated with the enzyme and ATP/Mg^2+ mixture for at least 10 minutes. The reaction was started by addition of the Kemptide peptide substrate (LRRASLG) and allowed to proceed for 45 min at room temperature. Each reaction in a final volume of 40 μl contained 50 μM Kemptide, 10 μM [γ-^33P]ATP (1 Ci/mmol) and either 11 nM Aurora A or 1.5 nM Aurora B/INCENP complex in the buffer containing 10 mM MgCl2, 5% DMSO, 20 mM MOPS, pH 7.2, 25 mM β-glycerol phosphate, 5 mM EGTA, 1 mM Na3VO4 and either 0.1 mg/ml of BSA and 1 mM DTT for Aurora A or 0.01% Triton-X100 and 2 mM DTT for Aurora B. The reaction was stopped with 25 μl of 5% H3PO4, and 45 μl of the mixture was transferred into a MultiScreen-PH filterplate (Millipore) pre-washed with 0.85% H3PO4. The filterplate was washed 4 times with 200 μl of 0.85% H3PO4 on a vacuum manifold. Scintillation fluid (50 μl of Ultima Gold™ LLT, PerkinElmer, Waltham, Mass.) was added to each well, and after 1-hr incubation at room temperature the plates were counted on MicroBeta (PerkinElmer, Waltham, Mass.) plate reader. […] Percent inhibition values were calculated based on the counts of the positive and negative controls, and these values were regressed against inhibitor concentration and fit into a four parameter model. From this fit the IC50 values (the inhibitor concentration at which 50% inhibition occurs) were derived as the inflection point on the semi-logarithm inhibition curve.

[2] = biological target: T2, full-length human Aurora B/INCENP complex (Homo sapiens, UniProt Q96GD4); assay: Aurora B phosphocellulose filter binding kinase activity assay; assay type: biochemical; settings: 1.5 nM Aurora B/INCENP complex, 10 μM ATP, 50 μM Kemptide, 45 min; read-out: Aur-B IC50
T2 construct: the full-length human Aurora B (N-terminal GST fusion); GST (N); purchased Carna BioSciences, Japan
Description: as §7

[3] = COLO 205, Colorectal cancer, 72 hrs, 50% growth inhibition relative to control
[4] = HCT-116, Colorectal cancer, 168 hrs, 50% growth inhibition relative to control

T2 sequence (Q96GD4 whole entry, the tested form may be a part): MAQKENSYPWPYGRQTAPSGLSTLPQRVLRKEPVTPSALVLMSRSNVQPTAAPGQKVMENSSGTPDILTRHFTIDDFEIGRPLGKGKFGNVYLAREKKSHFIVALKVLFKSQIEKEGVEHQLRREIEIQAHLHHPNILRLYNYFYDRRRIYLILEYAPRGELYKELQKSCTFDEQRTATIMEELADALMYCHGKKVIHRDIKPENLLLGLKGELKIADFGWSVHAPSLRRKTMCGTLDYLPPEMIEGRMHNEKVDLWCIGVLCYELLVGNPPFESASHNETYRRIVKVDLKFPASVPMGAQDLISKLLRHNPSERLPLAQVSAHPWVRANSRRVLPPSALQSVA
T2 sequence (Q9NQS7 803-918 partner limits assumed): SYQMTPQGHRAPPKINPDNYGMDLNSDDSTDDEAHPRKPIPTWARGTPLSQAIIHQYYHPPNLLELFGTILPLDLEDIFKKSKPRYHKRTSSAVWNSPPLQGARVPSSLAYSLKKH

CCN(CCO)CCCOc1ccc2c(Nc3cc(CC(=O)Nc4cccc(F)c4)[nH]n3)ncnc2c1 [AZD1152HQPA, reference compound]
IC50 (HL-60; HL-60, 72 h): 7.16 nM | IC50 (Colo205; COLO 205, 72 h): 23 nM | IC50 (HCT116; HCT-116, 168 h): 14.3 nM | IC50 (MCF-7; MCF7, 240 h): 60.7 nM | IC50 (MV-411; MV4-11, 72 h): 16.5 nM | IC50 (SW620; SW-620, 168 h): 20.9 nM

CN1CCN(S(=O)(=O)c2ccc(-c3ccc4c(Nc5cc(CC(=O)Nc6cccc(F)c6)[nH]n5)ncnc4c3)cc2)CC1 [Compound 7, N-(3-fluorophenyl)-2-(3-(7-(4-(4-methylpiperazin-1-ylsulfonyl)phenyl)quinazolin-4-ylamino)-1H-pyrazol-5-yl)acetamide]
IC50 [1]: 13.9 nM | IC50 [2]: 0.93 nM

O=C(Cc1cc(Nc2ncnc3ccccc23)n[nH]1)Nc1cccc(F)c1 [Compound 8, N-(3-fluorophenyl)-2-(3-(quinazolin-4-ylamino)-1H-pyrazol-5-yl)acetamide]
IC50 [1]: 2480 nM | IC50 [2]: 14.9 nM

O=C(Cc1cc(Nc2ncnc3cc(-c4ccc(C(=O)N5CCN(CC6CC6)CC5)cc4)ccc23)n[nH]1)Nc1cccc(F)c1 [Compound 9, 2-(3-(7-(4-(4-(Cyclopropylmethyl)piperazine-1-carbonyl)phenyl)quinazolin-4-ylamino)-1H-pyrazol-5-yl)-N-(3-fluorophenyl)acetamide]
IC50 [1]: 9.51 nM | IC50 (Colo205; [3]): 9.88 nM | IC50 (HCT116; [4]): 4.38 nM | IC50 [2]: 1.88 nM

O=C(Cc1cc(Nc2ncnc3cc(-c4ccc(C(=O)N5CCN(C6CC6)CC5)cc4)ccc23)n[nH]1)Nc1cccc(F)c1 [Compound 10, 2-(3-(7-(4-(4-Cyclopropylpiperazine-1-carbonyl)phenyl)quinazolin-4-ylamino)-1H-pyrazol-5-yl)-N-(3-fluorophenyl)acetamide]
IC50 [1]: 4.62 nM | IC50 (Colo205; [3]): 5.35 nM | IC50 (HCT116; [4]): 1.57 nM | IC50 [2]: 1.23 nM

C[C@@H]1CN(C(=O)c2ccc(-c3ccc4c(Nc5cc(CC(=O)Nc6cccc(F)c6)[nH]n5)ncnc4c3)cc2)C[C@H](C)N1 [Compound 11, 2-(3-(7-(4-((3S,5R)-3,5-dimethylpiperazine-1-carbonyl)phenyl)quinazolin-4-ylamino)-1H-pyrazol-5-yl)-N-(3-fluorophenyl)acetamide]
IC50 [1]: 6.42 nM | IC50 (Colo205; [3]): 2.9 nM | IC50 (HCT116; [4]): 1.62 nM | IC50 [2]: 1.37 nM

O=C(Cc1cc(Nc2ncnc3cc(-c4ccc(C(=O)N5CCN(CCF)CC5)cc4)ccc23)n[nH]1)Nc1cccc(F)c1 [Compound 12, 2-(3-(7-(4-(4-(2-Fluoroethyl)piperazine-1-carbonyl)phenyl)quinazolin-4-ylamino)-1H-pyrazol-5-yl)-N-(3-fluorophenyl)acetamide]
IC50 [1]: 2.86 nM | IC50 (Colo205; [3]): 7.82 nM | IC50 (HCT116; [4]): 3.98 nM | IC50 [2]: 0.74 nM

O=C(Cc1cc(Nc2ncnc3cc(-c4ccc(C(=O)N5CCN(CCOP(=O)(O)O)CC5)cc4)ccc23)n[nH]1)Nc1cccc(F)c1 [Compound 13, 2-(4-(4-(4-(5-(2-(3-Fluorophenylamino)-2-oxoethyl)-1H-pyrazol-3-ylamino)quinazolin-7-yl)benzoyl)piperazin-1-yl)ethyl dihydrogen phosphate]
IC50 [1]: 1.91 nM | IC50 (Colo205; [3]): 9.39 nM | IC50 (HCT116; [4]): 6.43 nM | IC50 [2]: 0.34 nM

O=C(Cc1cc(Nc2ncnc3cc(-c4ccc(C(=O)N5CCN(CCO)CC5)cc4)ccc23)n[nH]1)Nc1cc(F)cc(F)c1 [Compound 14, N-(3,5-Difluorophenyl)-2-(3-(7-(4-(4-(2-hydroxyethyl)piperazine-1-carbonyl)phenyl)quinazolin-4-ylamino)-1H-pyrazol-5-yl)acetamide]
IC50 [1]: 2.29 nM | IC50 (Colo205; [3]): 8.11 nM | IC50 (HCT116; [4]): 5.75 nM | IC50 [2]: 0.83 nM

O=C(Cc1cc(Nc2ncnc3cc(-c4ccc(C(=O)N5CCN(CCO)CC5)cc4)ccc23)n[nH]1)Nc1cccc(F)c1F [Compound 15, N-(2,3-Difluorophenyl)-2-(3-(7-(4-(4-(2-hydroxyethyl)piperazine-1-carbonyl)phenyl)quinazolin-4-ylamino)-1H-pyrazol-5-yl)acetamide]
IC50 [1]: 1.89 nM | IC50 (Colo205; [3]): 3.07 nM | IC50 (HCT116; [4]): 1.71 nM | IC50 [2]: 0.63 nM

CC(=O)O[C@H]1C(=O)[C@@]2(C)[C@H]([C@H](OC(=O)c3ccccc3)[C@]3(O)C[C@H](OC(=O)[C@H](O)[C@@H](NC(=O)c4ccccc4)c4ccccc4)C(C)=C1C3(C)C)[C@]1(OC(C)=O)CO[C@@H]1C[C@@H]2O [Taxol, reference compound]
IC50 (HL-60; HL-60, Leukemia, 72 hrs, 50% growth inhibition relative to control): 2.16 nM | IC50 (Colo205; [3]): 2.54 nM | IC50 (HCT116; [4]): 2.04 nM | IC50 (MCF-7; MCF7, Breast Cancer, 240 hrs, 50% growth inhibition relative to control): 0.58 nM | IC50 (MV-411; MV4-11, Leukemia, 72 hrs, 50% growth inhibition relative to control): 6.2 nM | IC50 (SW620; SW-620, Colorectal cancer, 168 hrs, 50% growth inhibition relative to control): 4.91 nM

Cc1cc(Nc2cc(N3CCN(C)CC3)nc(Sc3ccc(NC(=O)C4CC4)cc3)n2)n[nH]1 [VX-680, reference compound]
IC50 (HL-60; HL-60, 72 h): 13.8 nM | IC50 (Colo205; COLO 205, 72 h): 30.2 nM | IC50 (HCT116; HCT-116, 168 h): 18 nM | IC50 (MCF-7; MCF7, 240 h): 31 nM | IC50 (MV-411; MV4-11, 72 h): 79 nM | IC50 (SW620; SW-620, 168 h): 21.8 nM
